Patent US20210137898A1, “METHODS TO TREAT GLIOMAS USING A STAT3 INHIBITOR” (Mayo Foundation for Medical Education and Research, priority 2017, published 2021)

Legend:
Peds8 H3K27M cells = experiment: Cell viability, STAT3 inhibitors, H3K27M cells Peds8; assay type: cell-based
Method: (§1) Results are mean±SD of three independent experiments. B and C. H3K27M cells (Peds8 and DIPG8) are selectively sensitive to inhibition by STAT3 inhibitors. […] C.
(§2) The role of STAT3 in midline H3K27M tumors (e.g., diffuse midline H3K27M tumors) has not been studied. To further validate STAT3 signaling as a potential drug target in these patients, it was determined if STAT3 is required for proliferation of H3K27M cells. […] Because of the critical dependence of STAT3 signaling in H3K27M tumor cells, the activity of STAT3 (pSTAT3) would be elevated in patients with DIPG tumors. Using treatment naive surgical samples from DIPG patients, an increase (>10-fold) in pSTAT3 levels was observed as compared to non-neoplastic brain tissues from other surgeries (FIG. 5A). Using large cohorts from published data sets, it was also seen a >2-fold increase in STAT3 mRNA expression (RNA-seq) in DIPG patients compared to normal brainy (FIG. 5B). In addition, pSTAT3 expression levels were increased in H3K27M cell lines compared to WT lines in both pediatric and adult high-grade gliomas (FIG. 6). […] The data presented supports a method of treating glioma with H3K27M mutation by restoration of methylation pattern. In one example, the methylation pattern is restored by a H3K27me3 demethylase inhibitor (e.g., GSK-J4).

[1] = test system: H3K27me3 in H3K27M tumor cells (Peds8); experiment: Global H3K27 trimethylation in H3K27M tumor cells after treatment; assay type: cell-based; conditions: vs no treatment (NT), FIG. 6B-D
Method: as §2

DIPG8 H3K27M cells = experiment: Cell viability, STAT3 inhibitors, H3K27M cells DIPG8; assay type: cell-based; conditions: FIG. 4B/4C
Method: as §1, §2

H3K27M tumor Peds17 = test system: H3K27M tumor Peds17; parameters: species or system mice; conditions: mouse, in vivo, po
Method: H3K27M tumor Peds17 treated with STAT3 inhibitor WP1066 (20 mg/kg oral gavage) vs. control (DMSO) for 8 weeks. […] Cohorts of mice (n=10/group), were implanted in the brainstem and BLI was performed weekly using IVIS Lumina imaging system using luciferase transfected tumor cells.
To validate STAT3 as a therapeutic target for H3K27M tumors, the effects on tumor growth with WP1066 were evaluated in intracranial orthotopic xenografts (FIG. 7).

WT SF9427 cell line = experiment: Cell viability, STAT3 inhibitors, WT SF9427 cell line; assay type: cell-based; conditions: WT SF9427 cells, FIG. 4B/4C
Method: as §1, §2

Row | Compound | IC50 (Peds8 H3K27M cells; Peds8 (H3K27M) cells, FIG. 4B/4C) [nM] | cell viability of two H3K27M DIPG cell lines (Peds8 H3K27M cells; two H3K27M DIPG cell lines, much less in WT SF9427 cell line) | H3K27me3 level [1] | IC50 (DIPG8 H3K27M cells) [nM] | toxicities in the mice (H3K27M tumor Peds17) | IC50 (WT SF9427 cell line) [nM]
1 | C[C@H](NC(=O)/C(C#N)=C/c1cccc(Br)n1)c1ccccc1 [WP1066] | 1900 | inhibited cell viability | increases H3K27me3 | 2500 | no toxicities were noted | 62300
2 | CCOC(=O)CCNc1cc(N2CCc3ccccc3CC2)nc(-c2ccccn2)n1 [GSKJ4] |  |  | increases H3K27me3 |  |  | 
